Counter-ions that a name gives are not always drawn. The source made the active and inactive calls.
Key:
[1] = biological target: Serine/threonine-protein kinase MRCK gamma (Homo sapiens, UniProt Q6DT37)
[2] = biological target: Cyclin-dependent kinase 3 (Homo sapiens, UniProt Q00526)
[3] = biological target: T1, ATP-dependent RNA helicase DDX1 (Homo sapiens, UniProt Q92499)
T1 sequence (Q92499 whole entry): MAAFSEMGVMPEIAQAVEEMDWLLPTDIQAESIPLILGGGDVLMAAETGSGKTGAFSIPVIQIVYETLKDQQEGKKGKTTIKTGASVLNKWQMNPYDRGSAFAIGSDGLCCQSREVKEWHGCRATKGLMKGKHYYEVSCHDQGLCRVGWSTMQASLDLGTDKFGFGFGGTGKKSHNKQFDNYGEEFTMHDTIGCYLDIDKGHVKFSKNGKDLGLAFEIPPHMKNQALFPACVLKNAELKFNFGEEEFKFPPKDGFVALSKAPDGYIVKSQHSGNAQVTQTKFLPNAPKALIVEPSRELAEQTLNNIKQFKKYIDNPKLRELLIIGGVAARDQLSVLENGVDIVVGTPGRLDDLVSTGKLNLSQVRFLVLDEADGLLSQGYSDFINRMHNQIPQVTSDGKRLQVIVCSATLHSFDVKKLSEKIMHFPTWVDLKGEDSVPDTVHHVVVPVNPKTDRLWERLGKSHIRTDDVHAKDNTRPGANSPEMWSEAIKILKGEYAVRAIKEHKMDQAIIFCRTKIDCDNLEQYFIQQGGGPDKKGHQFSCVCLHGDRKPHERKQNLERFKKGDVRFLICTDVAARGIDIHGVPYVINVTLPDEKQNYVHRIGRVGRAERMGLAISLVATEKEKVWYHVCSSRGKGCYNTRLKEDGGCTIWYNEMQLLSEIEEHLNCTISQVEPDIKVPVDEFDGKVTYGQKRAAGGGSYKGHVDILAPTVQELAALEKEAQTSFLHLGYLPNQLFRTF

[4] = biological target: T2, Ephrin type-B receptor 4 (Homo sapiens, UniProt P54760)
T2 sequence (P54760 whole entry): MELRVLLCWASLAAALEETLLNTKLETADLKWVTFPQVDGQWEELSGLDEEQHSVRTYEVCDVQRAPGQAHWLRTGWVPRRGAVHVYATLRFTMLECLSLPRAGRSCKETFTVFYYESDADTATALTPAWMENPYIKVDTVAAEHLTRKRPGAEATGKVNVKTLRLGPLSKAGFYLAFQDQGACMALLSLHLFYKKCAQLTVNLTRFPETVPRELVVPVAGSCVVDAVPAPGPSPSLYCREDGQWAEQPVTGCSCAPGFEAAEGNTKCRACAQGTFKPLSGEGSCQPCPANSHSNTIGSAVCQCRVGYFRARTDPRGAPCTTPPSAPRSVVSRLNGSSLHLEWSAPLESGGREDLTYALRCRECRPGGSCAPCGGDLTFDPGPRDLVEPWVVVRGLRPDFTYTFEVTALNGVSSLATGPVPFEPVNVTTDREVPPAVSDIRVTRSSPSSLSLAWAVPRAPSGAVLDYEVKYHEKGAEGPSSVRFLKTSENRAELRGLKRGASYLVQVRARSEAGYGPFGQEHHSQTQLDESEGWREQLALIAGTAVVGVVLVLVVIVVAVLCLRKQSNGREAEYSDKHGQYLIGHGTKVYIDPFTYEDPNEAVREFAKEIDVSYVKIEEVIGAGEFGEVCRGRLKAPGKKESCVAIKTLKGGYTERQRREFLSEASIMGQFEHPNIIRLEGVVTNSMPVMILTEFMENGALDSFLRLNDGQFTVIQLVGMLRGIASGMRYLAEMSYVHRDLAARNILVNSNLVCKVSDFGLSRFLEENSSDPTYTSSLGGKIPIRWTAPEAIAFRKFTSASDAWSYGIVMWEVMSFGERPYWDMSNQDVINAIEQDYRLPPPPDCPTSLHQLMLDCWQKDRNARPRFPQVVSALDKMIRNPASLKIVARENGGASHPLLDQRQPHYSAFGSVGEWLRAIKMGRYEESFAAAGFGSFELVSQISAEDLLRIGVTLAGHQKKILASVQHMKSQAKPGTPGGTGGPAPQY

[5] = biological target: T3, Membrane-associated tyrosine- and threonine-specific cdc2-inhibitory kinase (Homo sapiens, UniProt Q99640)
T3 sequence (Q99640 whole entry): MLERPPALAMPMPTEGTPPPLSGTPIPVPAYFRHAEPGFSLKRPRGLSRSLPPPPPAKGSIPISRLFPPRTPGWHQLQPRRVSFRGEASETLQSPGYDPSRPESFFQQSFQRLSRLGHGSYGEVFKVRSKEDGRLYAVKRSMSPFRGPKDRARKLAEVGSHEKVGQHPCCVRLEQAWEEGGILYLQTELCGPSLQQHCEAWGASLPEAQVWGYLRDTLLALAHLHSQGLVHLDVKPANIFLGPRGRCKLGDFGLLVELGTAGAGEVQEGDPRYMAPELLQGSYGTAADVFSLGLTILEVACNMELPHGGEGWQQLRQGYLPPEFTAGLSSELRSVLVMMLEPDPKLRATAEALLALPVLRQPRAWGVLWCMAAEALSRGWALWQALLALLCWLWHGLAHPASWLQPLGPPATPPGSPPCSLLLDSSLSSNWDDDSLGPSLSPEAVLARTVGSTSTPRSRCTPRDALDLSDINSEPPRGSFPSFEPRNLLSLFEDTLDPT

[6] = biological target: U5 small nuclear ribonucleoprotein 200 kDa helicase (Homo sapiens, UniProt O75643)
[7] = biological target: TGF-beta receptor type-2 (Homo sapiens, UniProt P37173)
Further: in the data inactive means no Kd found up to 30 µM.

Chain of U5 small nuclear ribonucleoprotein 200 kDa helicase (O75643 whole entry): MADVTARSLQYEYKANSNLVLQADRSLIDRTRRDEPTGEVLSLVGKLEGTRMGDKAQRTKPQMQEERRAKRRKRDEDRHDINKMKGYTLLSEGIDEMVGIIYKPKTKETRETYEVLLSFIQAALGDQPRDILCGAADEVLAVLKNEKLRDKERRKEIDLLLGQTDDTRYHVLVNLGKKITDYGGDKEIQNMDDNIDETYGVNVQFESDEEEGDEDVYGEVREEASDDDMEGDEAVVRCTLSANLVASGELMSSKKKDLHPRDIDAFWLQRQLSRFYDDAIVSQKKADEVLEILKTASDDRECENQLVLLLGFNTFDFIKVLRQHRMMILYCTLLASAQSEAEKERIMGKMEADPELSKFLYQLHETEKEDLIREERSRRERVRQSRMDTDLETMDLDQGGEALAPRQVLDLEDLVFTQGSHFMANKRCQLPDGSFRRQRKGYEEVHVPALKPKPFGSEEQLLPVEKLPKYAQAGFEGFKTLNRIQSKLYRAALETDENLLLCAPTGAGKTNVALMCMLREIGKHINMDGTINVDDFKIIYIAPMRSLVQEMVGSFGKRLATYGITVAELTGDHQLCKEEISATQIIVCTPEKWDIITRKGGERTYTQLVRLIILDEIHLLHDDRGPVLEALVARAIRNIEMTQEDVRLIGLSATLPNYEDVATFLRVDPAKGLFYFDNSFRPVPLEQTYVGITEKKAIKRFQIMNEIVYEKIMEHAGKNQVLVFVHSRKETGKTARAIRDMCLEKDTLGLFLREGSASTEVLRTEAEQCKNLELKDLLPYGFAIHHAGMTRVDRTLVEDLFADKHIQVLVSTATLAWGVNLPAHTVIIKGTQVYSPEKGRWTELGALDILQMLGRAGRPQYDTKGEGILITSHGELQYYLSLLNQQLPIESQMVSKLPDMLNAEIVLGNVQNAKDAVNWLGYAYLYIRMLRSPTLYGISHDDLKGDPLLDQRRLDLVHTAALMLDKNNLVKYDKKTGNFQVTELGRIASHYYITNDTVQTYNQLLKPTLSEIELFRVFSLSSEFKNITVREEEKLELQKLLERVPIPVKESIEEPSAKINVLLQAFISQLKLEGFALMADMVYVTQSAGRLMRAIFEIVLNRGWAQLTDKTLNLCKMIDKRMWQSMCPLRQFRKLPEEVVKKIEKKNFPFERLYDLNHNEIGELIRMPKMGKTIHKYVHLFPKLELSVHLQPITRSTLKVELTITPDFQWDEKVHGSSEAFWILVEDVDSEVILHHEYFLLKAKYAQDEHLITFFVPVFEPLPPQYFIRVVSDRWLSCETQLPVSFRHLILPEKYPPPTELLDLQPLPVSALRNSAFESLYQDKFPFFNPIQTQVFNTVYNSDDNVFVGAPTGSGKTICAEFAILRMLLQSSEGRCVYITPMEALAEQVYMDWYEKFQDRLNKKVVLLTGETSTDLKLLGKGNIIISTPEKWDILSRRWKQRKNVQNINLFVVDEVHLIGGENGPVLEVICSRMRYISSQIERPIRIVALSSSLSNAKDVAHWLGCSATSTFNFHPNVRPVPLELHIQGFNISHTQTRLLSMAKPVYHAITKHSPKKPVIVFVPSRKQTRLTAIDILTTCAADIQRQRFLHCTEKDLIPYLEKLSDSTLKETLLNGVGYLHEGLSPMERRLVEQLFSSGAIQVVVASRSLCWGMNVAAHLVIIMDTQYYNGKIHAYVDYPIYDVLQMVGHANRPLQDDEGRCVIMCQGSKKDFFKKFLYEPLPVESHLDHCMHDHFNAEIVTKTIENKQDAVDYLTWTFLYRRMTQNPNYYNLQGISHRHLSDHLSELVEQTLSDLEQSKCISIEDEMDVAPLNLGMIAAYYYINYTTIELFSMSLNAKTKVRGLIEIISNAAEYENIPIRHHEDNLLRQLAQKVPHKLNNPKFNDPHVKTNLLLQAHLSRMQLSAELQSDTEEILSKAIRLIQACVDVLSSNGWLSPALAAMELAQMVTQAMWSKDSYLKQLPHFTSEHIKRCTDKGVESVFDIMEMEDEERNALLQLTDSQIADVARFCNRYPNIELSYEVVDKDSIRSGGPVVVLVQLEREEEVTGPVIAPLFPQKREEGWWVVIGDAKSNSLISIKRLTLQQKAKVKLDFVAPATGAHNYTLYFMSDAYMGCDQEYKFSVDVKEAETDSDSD
Chain of TGF-beta receptor type-2 (P37173 whole entry): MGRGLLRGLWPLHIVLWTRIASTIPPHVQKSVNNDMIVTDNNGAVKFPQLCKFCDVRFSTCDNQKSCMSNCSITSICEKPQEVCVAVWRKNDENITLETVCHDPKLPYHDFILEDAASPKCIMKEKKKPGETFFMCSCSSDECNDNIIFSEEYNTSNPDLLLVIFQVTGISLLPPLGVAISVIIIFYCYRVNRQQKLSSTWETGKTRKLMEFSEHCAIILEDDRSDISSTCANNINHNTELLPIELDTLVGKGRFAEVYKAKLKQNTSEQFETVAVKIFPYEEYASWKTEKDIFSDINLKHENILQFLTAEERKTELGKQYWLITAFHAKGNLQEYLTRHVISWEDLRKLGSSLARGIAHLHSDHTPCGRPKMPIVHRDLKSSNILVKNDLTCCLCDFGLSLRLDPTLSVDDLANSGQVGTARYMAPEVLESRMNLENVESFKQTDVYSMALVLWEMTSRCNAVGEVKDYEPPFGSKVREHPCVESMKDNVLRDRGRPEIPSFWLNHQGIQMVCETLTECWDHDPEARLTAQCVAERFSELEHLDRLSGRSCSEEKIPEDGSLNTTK
Chain of Serine/threonine-protein kinase MRCK gamma (Q6DT37 whole entry): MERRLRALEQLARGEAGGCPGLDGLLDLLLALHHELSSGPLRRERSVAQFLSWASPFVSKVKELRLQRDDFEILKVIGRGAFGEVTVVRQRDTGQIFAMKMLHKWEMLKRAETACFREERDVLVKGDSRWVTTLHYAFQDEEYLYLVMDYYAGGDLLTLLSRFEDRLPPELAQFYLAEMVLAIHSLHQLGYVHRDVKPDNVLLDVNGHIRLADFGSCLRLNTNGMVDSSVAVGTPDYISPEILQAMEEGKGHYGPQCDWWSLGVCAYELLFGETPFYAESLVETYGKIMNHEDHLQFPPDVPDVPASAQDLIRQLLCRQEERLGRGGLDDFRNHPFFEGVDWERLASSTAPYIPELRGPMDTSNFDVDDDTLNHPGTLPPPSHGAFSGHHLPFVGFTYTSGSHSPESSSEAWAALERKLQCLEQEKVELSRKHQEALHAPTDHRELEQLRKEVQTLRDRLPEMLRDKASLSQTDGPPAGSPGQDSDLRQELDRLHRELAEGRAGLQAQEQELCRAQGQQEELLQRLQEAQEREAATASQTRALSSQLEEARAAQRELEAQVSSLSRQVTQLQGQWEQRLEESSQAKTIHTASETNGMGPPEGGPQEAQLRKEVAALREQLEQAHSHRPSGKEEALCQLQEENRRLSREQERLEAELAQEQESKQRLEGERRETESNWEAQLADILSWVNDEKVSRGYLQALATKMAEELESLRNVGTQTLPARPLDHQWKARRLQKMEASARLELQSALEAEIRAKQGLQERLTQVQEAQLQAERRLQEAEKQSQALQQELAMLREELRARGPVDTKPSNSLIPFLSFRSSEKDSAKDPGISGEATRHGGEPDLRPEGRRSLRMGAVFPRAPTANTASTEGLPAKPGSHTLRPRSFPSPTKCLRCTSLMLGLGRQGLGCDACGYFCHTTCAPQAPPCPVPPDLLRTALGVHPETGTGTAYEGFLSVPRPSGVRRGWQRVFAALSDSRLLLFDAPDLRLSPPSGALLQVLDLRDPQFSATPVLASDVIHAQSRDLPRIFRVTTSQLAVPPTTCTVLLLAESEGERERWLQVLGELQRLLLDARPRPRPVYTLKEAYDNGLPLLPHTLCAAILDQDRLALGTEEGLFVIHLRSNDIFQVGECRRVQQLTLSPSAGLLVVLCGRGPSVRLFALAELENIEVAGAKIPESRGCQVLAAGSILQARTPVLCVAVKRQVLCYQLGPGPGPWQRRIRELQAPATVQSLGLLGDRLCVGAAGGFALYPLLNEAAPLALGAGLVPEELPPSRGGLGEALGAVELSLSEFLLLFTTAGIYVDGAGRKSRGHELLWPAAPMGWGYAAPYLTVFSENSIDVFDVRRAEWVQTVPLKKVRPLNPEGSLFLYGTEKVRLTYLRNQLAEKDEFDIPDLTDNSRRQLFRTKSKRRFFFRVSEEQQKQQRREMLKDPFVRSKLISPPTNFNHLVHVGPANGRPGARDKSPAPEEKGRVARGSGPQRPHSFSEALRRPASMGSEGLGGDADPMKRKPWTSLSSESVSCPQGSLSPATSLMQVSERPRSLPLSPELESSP
Chain of Cyclin-dependent kinase 3 (Q00526 whole entry): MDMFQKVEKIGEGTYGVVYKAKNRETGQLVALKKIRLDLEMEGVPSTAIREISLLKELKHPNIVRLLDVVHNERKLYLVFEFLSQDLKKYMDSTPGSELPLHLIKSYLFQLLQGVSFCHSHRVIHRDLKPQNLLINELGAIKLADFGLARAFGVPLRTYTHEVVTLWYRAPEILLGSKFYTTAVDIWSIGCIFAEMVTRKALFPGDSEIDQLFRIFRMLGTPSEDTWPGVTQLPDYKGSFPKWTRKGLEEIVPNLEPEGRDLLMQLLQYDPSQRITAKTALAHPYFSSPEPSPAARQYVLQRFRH

Compound	Kd [1]	Kd [2]	Kd [3]	Kd [4]	Kd [5]	Kd [6]	Kd [7]
C=CC(=O)N1CCC[C@H](n2c(=O)n(-c3ccc(Oc4ccccc4)cc3)c3c(N)ncnc32)C1	> 30 µM (inactive)	> 30 µM (inactive)	> 30 µM (inactive)	> 30 µM (inactive)	> 30 µM (inactive)	> 30 µM (inactive)	> 30 µM (inactive)
Cc1nc2cc(-c3nn(C(C)C)c4ncnc(N)c34)ccc2o1	> 30 µM (inactive)	> 30 µM (inactive)	> 30 µM (inactive)	> 30 µM (inactive)	> 30 µM (inactive)	> 30 µM (inactive)	> 30 µM (inactive)
Nc1ncnc2c1c(-c1cccc(OCc3ccccc3)c1)cn2[C@H]1C[C@@H](CN2CCC2)C1 [AEW-541]	> 30 µM (inactive)	> 30 µM (inactive)	> 30 µM (inactive)	> 30 µM (inactive)	> 30 µM (inactive)	> 30 µM (inactive)	> 30 µM (inactive)
Cc1csc(-c2nnc(Nc3ccc(Oc4ncccc4-c4ccnc(N)n4)cc3)c3ccccc23)c1 [AMG-900]	> 30 µM (inactive)	> 30 µM (inactive)	> 30 µM (inactive)	> 30 µM (inactive)	> 30 µM (inactive)	> 30 µM (inactive)	> 30 µM (inactive)
C=CC(=O)Nc1cc2c(Nc3ccc(F)c(Cl)c3)ncnc2cc1C#CC(C)(C)N1CCN(C)CC1 [AV-412 FREE BASE]	> 30 µM (inactive)	> 30 µM (inactive)	> 30 µM (inactive)	> 30 µM (inactive)	> 30 µM (inactive)	> 30 µM (inactive)	> 30 µM (inactive)
COc1cc([C@@H]2c3cc4c(cc3[C@H](O)[C@H]3COC(=O)[C@@H]23)OCO4)cc(OC)c1OC [AXL-1717]	> 30 µM (inactive)	> 30 µM (inactive)	> 30 µM (inactive)	> 30 µM (inactive)	> 30 µM (inactive)	> 30 µM (inactive)	> 30 µM (inactive)
NC(=O)Nc1cc(-c2cccc(F)c2)sc1C(=O)N[C@H]1CCCNC1 [AZD-7762]	> 30 µM (inactive)	0.139 µM (active)	> 30 µM (inactive)	> 30 µM (inactive)	> 30 µM (inactive)	> 30 µM (inactive)	> 30 µM (inactive)
Cc1cc(C(=O)NOCCO)c(Nc2ccc(I)cc2F)n(C)c1=O [AZD-8330]	> 30 µM (inactive)	> 30 µM (inactive)	> 30 µM (inactive)	> 30 µM (inactive)	> 30 µM (inactive)	> 30 µM (inactive)	> 30 µM (inactive)
O=C(Nc1nc2cccc(-c3ccc(CN4CCS(=O)(=O)CC4)cc3)n2n1)C1CC1 [FILGOTINIB]	> 30 µM (inactive)	> 30 µM (inactive)	> 30 µM (inactive)	> 30 µM (inactive)	> 30 µM (inactive)	> 30 µM (inactive)	> 30 µM (inactive)

More lines, now with the values ahead:

Kd [1]	Kd [2]	Kd [3]	Kd [4]	Kd [5]	Kd [6]	Kd [7]	Compound
> 30 µM (inactive)	> 30 µM (inactive)	> 30 µM (inactive)	> 30 µM (inactive)	> 30 µM (inactive)	> 30 µM (inactive)	> 30 µM (inactive)	Cn1cnc2c(F)c(Nc3ccc(Br)cc3F)c(C(=O)NOCCO)cc21 [BINIMETINIB]
> 30 µM (inactive)	> 30 µM (inactive)	> 30 µM (inactive)	> 30 µM (inactive)	> 30 µM (inactive)	> 30 µM (inactive)	> 30 µM (inactive)	CCn1c(C(=O)N(C2CC2)C2CC2)cc2c3c(ncn3C)c(Nc3cc(C)n(C)n3)nc21 [BMS-911543]
> 30 µM (inactive)	> 30 µM (inactive)	> 30 µM (inactive)	9.82 µM (active)	> 30 µM (inactive)	> 30 µM (inactive)	> 30 µM (inactive)	COc1cc2ncnc(Oc3cccc(NC(=O)Nc4cc(C(C)(C)C(F)(F)F)on4)c3)c2cc1OC [CEP-32496]
> 30 µM (inactive)	> 30 µM (inactive)	> 30 µM (inactive)	> 30 µM (inactive)	> 30 µM (inactive)	> 30 µM (inactive)	> 30 µM (inactive)	Cc1cc(Nc2ncc(Cl)c(Nc3ccccc3S(=O)(=O)C(C)C)n2)c(OC(C)C)cc1C1CCNCC1 [CERITINIB]
> 30 µM (inactive)	> 30 µM (inactive)	> 30 µM (inactive)	> 30 µM (inactive)	> 30 µM (inactive)	> 30 µM (inactive)	> 30 µM (inactive)	COc1c(OCCCN2CCOCC2)ccc2c1N=C(NC(=O)c1cnc(N)nc1)N1CCN=C21 [COPANLISIB]
> 30 µM (inactive)	> 30 µM (inactive)	> 30 µM (inactive)	> 30 µM (inactive)	> 30 µM (inactive)	> 30 µM (inactive)	> 30 µM (inactive)	COCC(=O)NC/C=C/c1ccc2ncnc(Nc3ccc(Oc4ccc(C)nc4)c(C)c3)c2c1 [CP-724714]
> 30 µM (inactive)	> 30 µM (inactive)	> 30 µM (inactive)	> 30 µM (inactive)	> 30 µM (inactive)	> 30 µM (inactive)	> 30 µM (inactive)	C#Cc1cccc(Nc2ncnc3cc(OC)c(OCCCCCCC(=O)NO)cc23)c1 [CUDC-101]
> 30 µM (inactive)	> 30 µM (inactive)	> 30 µM (inactive)	> 30 µM (inactive)	> 30 µM (inactive)	> 30 µM (inactive)	> 30 µM (inactive)	CCS(=O)(=O)N1CCN(c2ccc(Nc3ncc(C(N)=O)c(NC4CC4)n3)cc2)CC1 [Cerdulatinib Hydrochloride]
> 30 µM (inactive)	> 30 µM (inactive)	> 30 µM (inactive)	> 30 µM (inactive)	> 30 µM (inactive)	> 30 µM (inactive)	> 30 µM (inactive)	Cc1nc2cc(-n3ncc(C(=O)c4cc5ccccc5[nH]4)c3N)ccc2[nH]1 [FGFR INHIBITOR DEBIO 1347]
> 30 µM (inactive)	> 30 µM (inactive)	> 30 µM (inactive)	> 30 µM (inactive)	> 30 µM (inactive)	> 30 µM (inactive)	> 30 µM (inactive)	Cc1cccc(-c2nn3c(c2-c2ccnc4ccc(C(N)=O)cc24)CCC3)n1 [GALUNISERTIB]
> 30 µM (inactive)	> 30 µM (inactive)	> 30 µM (inactive)	> 30 µM (inactive)	> 30 µM (inactive)	> 30 µM (inactive)	> 30 µM (inactive)	COc1ccc(S(=O)(=O)N(C(C)=O)c2ccccc2/C=C/c2cc[n+]([O-])cc2)cc1 [HMN-214]

From ChEMBL document CHEMBL3991601, “The target landscape of clinical kinase drugs” (Science, 2017)
